Results reported in patent US4435404A, “Carbostyril derivatives” (priority 1980, dated 1984).

What was measured:
[1] = tested on: arterial papillary muscle; experiment: Positive inotropic effect, blood-perfused arterial papillary muscle; design: species or system dog; details: into septal artery
Protocol: Positive inotropic effects of the novel carbostyril derivatives of the present invention were tested according to a method described by M. Endoh and K. Hashimoto, in "American Journal of Physiology", Vol. 218, No. 5, May, 1970, pages 1459-1463 as follows:
Adult bastard dogs of both sexes, weighing 8-12 kg, were anesthetized with pentobarbital-Na at a rate of 30 mg/kg by intraveneous administration. After another intraveneous administration of sodium heparin, 1,000 μ/kg, the test dog was sacrificed by blood letting. The heart of the dog was excised and immediately plunged into Locke's solution, then the arterial papillary muscle was excised out with interventicular septum. The septal artery was carefully isolated and cannulated with a polyethylene cannula and was ligated with thread. Septal arteries those of connected to other than the arterial papillary muscle were ligated with thread. Next, the donor adult bastard dogs, weighing 18-27 kg, were anesthetized with pentabarbital-Na (30 mg/kg, intraveneous injection), and further treated with intravenous administration of sodium heparin (1,000 μ/kg). The arterial papillary muscle was perfused through the septal artery being cannulated with the polyethylene cannula with the blood conducted from the carotid artery of the donor dog by aid of Peristaric pump. The perfusion pressure was maintained at 100 mmHg constantly. Then the muscle was electrically stimulated by an electronic stimulator through bipolar electrodes in contact with the interventicular septum. The strength of stimulation was 2 X (the minimum value for appearing the action), frequency 2 Hz, pulse duration 2 msec.
The isometric contraction generated was measured through a force-displacement transducer. The amount of blood flow in the coronary arteries was measured by determining the amount of the blood flow conducted to the septal artery by electromagnetic flow meter. All the data were recorded on an ink-writing recorder.
A solution containing a compound to be tested was injected into the septal artery through the rubber tube connected close to the shunk of the polyethylene cannula, in an amount of 10-30 μl.
The results obtained is shown in Table 4, in which the increasement (%) of contraction is indicated as the ratio of the contractions before and after the administration (injection) of the solution containing the test compound.

[2] = tested on: Gold blatt type renoprival hypertension rats (RHR); experiment: Hypotensive effect, Tail-cuff method, RHR; assay type: in vivo, rat; details: 30 mg/kg oral, mean value ± standard deviation
Protocol: (§1) Hypotensive effect of the compounds were measured by determining the maximum blood pressure of the test animals according to a procedure of Tail-cuff method.
(§2) Test animals used were the following two types.
(1) Gold blatt type renoprival hypertension rats (RHR)
Wistar strain male rats having, 160-180 g of body weight, were anesthetized with ether and the left-side renal artery was pluged with a silver clip having 0.2 mm inside diameter, while the right-side renal artery was kept as it was without operation. Four (4) weeks after the operation, rats having the maximum blood pressure over 150 mmHg were selected and used as test animals which were abstained from food for overnight.
(§3) Each of compounds to be tested were administered orally and the blood pressure was measured before the administration and 1, 2, 4, 6 and 8 hours after the administration. The blood pressure was measured by using Recorder (Rectihoriz type 8S, San-ei Instrument) and Electrosthygmomanometer PE-300 (Macro Bio-systems, Houston, Tex.).

[3] = tested on: Deoxycorticosteroneacetate (DOCA)/saline hypertension rats (DHR); experiment: Hypotensive effect, Tail-cuff method, DHR; assay type: in vivo, rat; details: 30 mg/kg oral, mean value ± standard deviation
Protocol: as §1, §2
(2) Deoxycorticosteroneacetate (DOCA)/saline hypertension rats (DHR)
Wistar strain male rats having 150-170 g of body weight, were anesthetized with ether and the left-side kidney was enucleated. One (1) week after the operation, 10 mg/kg of DOCA was injected subcutaneously once a week and 1% NaCl aqueous solution was given as drinking water. Five (5) weeks after the operation, rats having the maximum blood pressure over 150 mmHg were selected and used as test animals which were abstained from food for overnight.
as §3

bastard dog = experiment: Increasing effect of cerebral blood flow; assay type: in vivo; details: profunda femoris vein
Protocol: Thus, a bastard dog (male, 12-20 kg of body weight) was fixed in a prone (position) and was anesthetized with 20 mg/kg of pentobarbital sodium and made forced breathing to kept the frequency of respiration at 20 times/minutes. Then, the skull was bared and the surface bone was removed to expose the venous sinus by using grinder and the venous blood was took out from the venas which was cannulizated. The amount of venous blood flow was measured by using an electromagnetic blood flow meter and next measured by using drop-counter by measuring the number of drops of blood per 10 seconds.
The increasing effect of cerebral blood flow was calculated by comparing the number of blood drops in 30 seconds at the peak of increasement shown before and after the administration of compound to be tested. The each of compounds to be tested was dissolved in dimethylformamide and diluted with physiological saline solution and administered through a cannule being inserted into the profunda femoris vein.

Substance: 6-{3-[N-(2-hydroxyethyl)-N-cyclohexylaminocarbonyl]propoxy}-3,4-dihydrocarbostyril [Example 2]
- Increasing of inotropic ([1]; dosage 10 n mol): 38.9%
- Increasing of inotropic ([1]; dosage 30 n mol): 94.3%
- Maximum blood pressure after the administration (difference) ([2]; 1 hour): -4.8 ± 6.4 mmHg
- Maximum blood pressure after the administration (difference) ([2]; 2 hours): -4.8 ± 3.7 mmHg
- Maximum blood pressure after the administration (difference) ([2]; 4 hours): -3.2 ± 4.0 mmHg
- Maximum blood pressure after the administration (difference) ([3]; 1 hour): -63.0 ± 9.1 mmHg
- Maximum blood pressure after the administration (difference) ([3]; 2 hours): -30.4 ± 9.9 mmHg
- Maximum blood pressure after the administration (difference) ([3]; 4 hours): -42.8 ± 5.5 mmHg
- Maximum blood pressure after the administration (difference) ([3]; 6 hours): -24.1 ± 6.8 mmHg

Substance: 6-{4-[N-(2-Hydroxypropyl)-N-cyclohexylaminocarbonyl]butoxy}-3,4-dihydrocarbostyril [Example 8]
- Increasing of inotropic ([1]; dosage 30 n mol): 38.7%
- Increasing of inotropic ([1]; dosage 100 n mol): 89.4%

Substance: 6-{3-[N-(2-Hydroxybutyl)-N-cyclohexylaminocarbonyl]propoxy}-3,4-dihydrocarbostyril [Example 4]
- Increasing of inotropic ([1]; dosage 10 n mol): 10%
- Increasing of inotropic ([1]; dosage 100 n mol): 62.5%
- Increasing effect of cerebral blood flow (bastard dog; dosage 300 μg/kg): 64.2%

Substance: 7-{3-[N-(3-Hydroxypropyl)-N-cyclohexylaminocarbonyl]propoxy}-3,4-dihydrocarbostyril [Example 17]
- Increasing effect of cerebral blood flow (bastard dog; dosage 100 μg/kg): 34.4%
- Maximum blood pressure after the administration (difference) ([2]; 1 hour): -25.5 ± 7.0 mmHg
- Maximum blood pressure after the administration (difference) ([2]; 2 hours): -23.3 ± 9.6 mmHg
- Maximum blood pressure after the administration (difference) ([2]; 4 hours): -27.0 ± 14.1 mmHg
- Maximum blood pressure after the administration (difference) ([2]; 6 hours): -33.7 ± 10.2 mmHg
- Maximum blood pressure after the administration (difference) ([2]; 8 hours): -29.8 ± 9.7 mmHg
- Maximum blood pressure after the administration (difference) ([3]; 1 hour): -2.5 ± 4.0 mmHg
- Maximum blood pressure after the administration (difference) ([3]; 2 hours): -8.7 ± 3.3 mmHg
- Maximum blood pressure after the administration (difference) ([3]; 4 hours): -9.3 ± 8.6 mmHg

Substance: 6-{4-[N-(2-Hydroxyethyl)-N-cyclohexylaminocarbonyl]butoxy}-3,4-dihydrocarbostyril [Example 9]
- Increasing effect of cerebral blood flow (bastard dog; dosage 100 μg/kg): 85.3%
- Maximum blood pressure after the administration (difference) ([2]; 1 hour): -10.1 ± 6.2 mmHg
- Maximum blood pressure after the administration (difference) ([2]; 2 hours): -11.6 ± 9.6 mmHg
- Maximum blood pressure after the administration (difference) ([2]; 4 hours): -14.2 ± 5.0 mmHg
- Maximum blood pressure after the administration (difference) ([2]; 6 hours): -8.0 ± 2.6 mmHg
- Maximum blood pressure after the administration (difference) ([3]; 1 hour): -51.2 ± 14.0 mmHg
- Maximum blood pressure after the administration (difference) ([3]; 2 hours): -44.6 ± 14.6 mmHg
- Maximum blood pressure after the administration (difference) ([3]; 4 hours): -42.4 ± 13.9 mmHg
- Maximum blood pressure after the administration (difference) ([3]; 6 hours): -34.0 ± 10.2 mmHg
